Measurements as given in patent US9605003B2, “Heterocyclic compounds and uses thereof” (Infinity Pharmaceuticals, Inc., priority 2011, dated 2017).

What was measured:
PI3Kβ = target: T1, PI3Kβ (Homo sapiens, UniProt P42338); assay: PI3 Kinase HTRF assay, PI3Kβ; format: biochemical; details: Between 1 μM and 10 μM; read-out: PI3K β IC50
T1 construct: purchased Millipore Corporation 14-603-K
Text: (§1) A PI3-Kinase HTRF® assay kit (cat No. 33-016) purchased from Millipore Corporation was used to screen compounds provided herein. This assay used specific, high affinity binding of the GRP1 pleckstrin homology (PH) domain to PIP3, the product of a Class 1A or 1B PI3 Kinase acting on its physiological substrate PIP2. During the detection phase of the assay, a complex was generated between the GST-tagged PH domain and biotinylated short chain PIP3. The biotinylated PIP3 and the GST-tagged PH domain recruited fluorophores (Streptavidin-Allophycocyanin and Europium-labeled anti-GST respectively) to form the fluorescence resonance energy transfer (FRET) architecture, generating a stable time-resolved FRET signal. The FRET complex was disrupted in a competitive manner by non-biotinylated PIP3, a product formed in the PI3 Kinase assay.
(§2) PI3 Kinase α, β, γ and δ activity was assayed using the PI3 Kinase HTRF® assay kit (catalogue No. 33-016) purchased from Millipore Corporation. Purified recombinant PI3Kα (catalogue No. 14-602-K), PI3Kβ (catalogue No. 14-603-K), PI3Kγ (catalogue No. 14-558-K) and PI3Kδ (catalogue No. 14-604-K) were obtained from Millipore Corporation. Purified recombinant PI3K enzyme was used to catalyze the phosphorylation of phosphatidylinositol 4,5-bisphosphate (PIP2 at 10 μM) to phosphatidylinositol 3,4,5-trisphosphate (PIP3) in the presence of 10 μM ATP. The assay was carried out in 384-well format and detected using a Perkin Elmer EnVision Xcite Multilabel Reader. Emission ratios were converted into percent inhibitions and imported into GraphPad Prism software. The concentration necessary to achieve inhibition of enzyme activity by 50% (IC50) was calculated using concentrations ranging from 20 μM to 0.1 nM (12-point curve). IC50 values were determined using a nonlinear regression model available in GraphPad Prism 5.

Balb/c splenic B cells = assay: B cell activation and proliferation assay (Alamar Blue); format: cell-based; details: Mus musculus, Less than 100 nanoMolar
Protocol: The ability of one or more subject compounds to inhibit B cell activitation and proliferation is determined according to standard procedures known in the art. For example, an in vitro cellular proliferation assay is established that measures the metabolic activity of live cells. The assay is performed in a 96 well microtiter plate using Alamar Blue reduction. Balb/c splenic B cells are purified over a Ficoll-Paque™ PLUS gradient followed by magnetic cell separation using a MACS B cell Isolation Kit (Miletenyi). Cells are plated in 90 μl at 50,000 cells/well in B Cell Media (RPMI+10% FBS+Penn/Strep+50 μM bME+5 mM HEPES). A compound provided herein is diluted in B Cell Media and added in a 10 μl volume. Plates are incubated for 30 min at 37° C. and 5% CO2 (0.2% DMSO final concentration). A 50 μl B cell stimulation cocktail is then added containing either 10 μg/ml LPS or 5 μg/ml F(ab′)2 Donkey anti-mouse IgM plus 2 ng/ml recombinant mouse IL4 in B Cell Media. Plates are incubated for 72 hours at 37° C. and 5% CO2. A volume of 15 μL of Alamar Blue reagent is added to each well and plates are incubated for 5 hours at 37° C. and 5% CO2. Alamar Blue fluoresce is read at 560Ex/590Em, and IC50 or EC50 values are calculated using GraphPad Prism 5.

PI3Kα = target: T2, PI3Kα (Homo sapiens, UniProt P42336); assay: PI3 Kinase HTRF assay, PI3Kα; format: biochemical; details: Between 1 μM and 10 μM; read-out: PI3K α IC50
T2 construct: purchased Millipore Corporation 14-602-K
Text: as §1, §2

T2 sequence (P42336 whole entry): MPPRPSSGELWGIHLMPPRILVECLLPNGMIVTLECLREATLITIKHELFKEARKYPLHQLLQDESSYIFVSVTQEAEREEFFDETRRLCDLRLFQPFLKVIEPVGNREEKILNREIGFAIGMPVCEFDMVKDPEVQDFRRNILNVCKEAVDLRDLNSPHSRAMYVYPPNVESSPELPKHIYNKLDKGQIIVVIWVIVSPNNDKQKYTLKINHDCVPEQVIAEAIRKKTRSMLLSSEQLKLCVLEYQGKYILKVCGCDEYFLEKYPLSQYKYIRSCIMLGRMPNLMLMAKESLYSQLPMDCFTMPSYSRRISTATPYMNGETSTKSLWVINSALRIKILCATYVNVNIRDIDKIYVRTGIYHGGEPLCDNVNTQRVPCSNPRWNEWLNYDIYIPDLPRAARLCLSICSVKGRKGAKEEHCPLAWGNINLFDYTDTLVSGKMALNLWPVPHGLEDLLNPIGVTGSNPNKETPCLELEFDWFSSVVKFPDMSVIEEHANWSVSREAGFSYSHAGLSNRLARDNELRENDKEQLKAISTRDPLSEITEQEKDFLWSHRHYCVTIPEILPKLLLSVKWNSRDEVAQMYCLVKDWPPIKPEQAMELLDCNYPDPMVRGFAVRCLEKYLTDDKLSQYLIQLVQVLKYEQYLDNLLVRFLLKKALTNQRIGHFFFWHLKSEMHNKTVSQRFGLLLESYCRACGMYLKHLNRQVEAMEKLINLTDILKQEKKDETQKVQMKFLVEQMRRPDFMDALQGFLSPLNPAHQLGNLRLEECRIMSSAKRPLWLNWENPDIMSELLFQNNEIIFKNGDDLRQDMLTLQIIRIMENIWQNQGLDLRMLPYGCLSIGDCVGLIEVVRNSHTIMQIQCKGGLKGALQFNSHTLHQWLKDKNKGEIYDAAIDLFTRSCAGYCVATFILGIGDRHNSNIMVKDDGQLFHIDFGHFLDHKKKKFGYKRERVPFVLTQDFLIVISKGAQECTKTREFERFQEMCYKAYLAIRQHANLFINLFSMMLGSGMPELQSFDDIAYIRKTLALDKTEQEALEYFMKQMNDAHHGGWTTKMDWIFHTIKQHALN
T2 sequence (P27986 whole entry partner): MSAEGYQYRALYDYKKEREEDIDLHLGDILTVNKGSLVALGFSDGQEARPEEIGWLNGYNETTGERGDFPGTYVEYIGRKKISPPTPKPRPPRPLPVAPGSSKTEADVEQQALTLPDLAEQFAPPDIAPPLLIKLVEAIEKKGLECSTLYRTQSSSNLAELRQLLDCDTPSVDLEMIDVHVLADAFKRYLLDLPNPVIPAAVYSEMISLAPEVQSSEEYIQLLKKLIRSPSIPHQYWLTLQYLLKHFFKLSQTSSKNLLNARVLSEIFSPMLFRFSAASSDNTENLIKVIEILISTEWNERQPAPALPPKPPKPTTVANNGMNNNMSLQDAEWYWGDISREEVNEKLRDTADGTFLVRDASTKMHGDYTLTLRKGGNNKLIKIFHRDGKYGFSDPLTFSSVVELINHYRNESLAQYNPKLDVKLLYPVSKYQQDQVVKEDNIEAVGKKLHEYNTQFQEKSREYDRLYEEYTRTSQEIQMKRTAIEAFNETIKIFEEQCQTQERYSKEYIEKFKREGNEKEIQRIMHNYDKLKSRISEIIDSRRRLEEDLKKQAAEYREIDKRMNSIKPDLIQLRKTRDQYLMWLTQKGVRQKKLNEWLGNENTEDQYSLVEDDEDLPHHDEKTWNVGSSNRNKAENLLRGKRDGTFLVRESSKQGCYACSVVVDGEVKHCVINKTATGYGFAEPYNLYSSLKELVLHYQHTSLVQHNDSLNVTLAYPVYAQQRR
T1 sequence (P42338 whole entry): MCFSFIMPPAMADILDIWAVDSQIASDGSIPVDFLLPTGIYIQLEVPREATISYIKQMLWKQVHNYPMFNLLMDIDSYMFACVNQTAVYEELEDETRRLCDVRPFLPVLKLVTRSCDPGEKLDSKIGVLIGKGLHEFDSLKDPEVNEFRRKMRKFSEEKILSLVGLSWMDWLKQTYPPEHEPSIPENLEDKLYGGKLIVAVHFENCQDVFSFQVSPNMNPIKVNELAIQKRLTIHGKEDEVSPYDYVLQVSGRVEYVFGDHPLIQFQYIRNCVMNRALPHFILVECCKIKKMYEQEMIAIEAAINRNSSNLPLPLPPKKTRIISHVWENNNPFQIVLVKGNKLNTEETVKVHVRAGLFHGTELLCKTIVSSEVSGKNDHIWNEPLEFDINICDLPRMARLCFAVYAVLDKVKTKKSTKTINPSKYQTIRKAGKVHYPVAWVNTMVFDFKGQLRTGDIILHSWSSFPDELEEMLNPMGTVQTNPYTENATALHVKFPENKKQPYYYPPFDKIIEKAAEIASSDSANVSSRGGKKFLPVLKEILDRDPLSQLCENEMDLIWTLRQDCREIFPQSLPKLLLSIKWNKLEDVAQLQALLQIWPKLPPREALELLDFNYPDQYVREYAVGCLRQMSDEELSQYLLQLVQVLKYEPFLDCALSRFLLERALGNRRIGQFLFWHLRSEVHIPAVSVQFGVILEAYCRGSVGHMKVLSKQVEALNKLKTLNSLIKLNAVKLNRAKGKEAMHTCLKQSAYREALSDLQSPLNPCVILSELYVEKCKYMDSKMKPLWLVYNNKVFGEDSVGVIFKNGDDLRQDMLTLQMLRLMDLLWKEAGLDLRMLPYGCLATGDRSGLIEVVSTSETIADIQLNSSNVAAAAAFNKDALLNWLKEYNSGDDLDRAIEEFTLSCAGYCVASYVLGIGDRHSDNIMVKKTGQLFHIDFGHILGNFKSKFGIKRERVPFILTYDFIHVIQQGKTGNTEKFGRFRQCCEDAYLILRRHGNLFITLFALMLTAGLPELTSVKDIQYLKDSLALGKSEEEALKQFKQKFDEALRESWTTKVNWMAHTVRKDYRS
T1 sequence (P27986 2-724 partner limits assumed): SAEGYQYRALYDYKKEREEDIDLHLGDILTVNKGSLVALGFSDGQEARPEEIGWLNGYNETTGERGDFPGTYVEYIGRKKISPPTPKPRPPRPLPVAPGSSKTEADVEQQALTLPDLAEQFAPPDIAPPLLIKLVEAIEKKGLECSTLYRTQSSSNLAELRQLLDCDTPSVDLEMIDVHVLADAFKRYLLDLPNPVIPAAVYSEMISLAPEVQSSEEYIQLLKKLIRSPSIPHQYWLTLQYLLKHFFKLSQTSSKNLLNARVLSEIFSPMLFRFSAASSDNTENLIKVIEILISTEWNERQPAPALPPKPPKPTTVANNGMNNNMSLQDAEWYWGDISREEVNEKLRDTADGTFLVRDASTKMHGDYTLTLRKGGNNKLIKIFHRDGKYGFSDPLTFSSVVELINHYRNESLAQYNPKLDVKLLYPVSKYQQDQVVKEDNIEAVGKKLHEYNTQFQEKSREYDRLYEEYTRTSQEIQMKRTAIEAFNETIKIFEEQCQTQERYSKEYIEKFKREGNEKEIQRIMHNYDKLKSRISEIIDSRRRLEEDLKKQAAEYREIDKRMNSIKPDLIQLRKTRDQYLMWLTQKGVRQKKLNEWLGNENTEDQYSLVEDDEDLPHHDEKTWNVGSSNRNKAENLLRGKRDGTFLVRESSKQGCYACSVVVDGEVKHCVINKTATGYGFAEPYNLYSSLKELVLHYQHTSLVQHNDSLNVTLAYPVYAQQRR

Row | IC50 (PI3Kβ) | IC50 (PI3Kα) | SMILES | EC50 (Balb/c splenic B cells)
1 | 1 to 10 µM | – | Cc1ccnc2cc(C(C)Nc3ncnc4scnc34)n(-c3ccccc3)c(=O)c12 (stereo not shown) [Compound 70] | –
2 | 1 to 10 µM | 1 to 10 µM | Cc1cc(-c2cccc3cc([C@H](C)Nc4ncnc5scnc45)n(-c4ccccc4)c(=O)c23)cnc1C [Compound 40] | –
3 | 1 to 10 µM | – | C[C@H](Nc1ncnc2scnc12)c1cc2cccc(-c3cnc4c(c3)CCCO4)c2c(=O)n1-c1ccccc1 [Compound 54] | < 0.1 µM
4 | 1 to 10 µM | 1 to 10 µM | Cc1cc(-c2cccc3cc([C@H](C)Nc4ncnc5scnc45)n(-c4ccccc4)c(=O)c23)cnc1F [Compound 30] | –
5 | 1 to 10 µM | – | C[C@H](Nc1ncnc2scnc12)c1cc2cccc(-c3ccc(N)nc3)c2c(=O)n1-c1ccccc1 [Compound 46] | < 0.1 µM
6 | – | 1 to 10 µM | C[C@H](Nc1ncnc2scnc12)c1cc2cccc(-c3cnn(CCN4CCOCC4)c3)c2c(=O)n1-c1ccccc1 [Compound 48] | < 0.1 µM
7 | 1 to 10 µM | – | C[C@H](Nc1ncnc2scnc12)c1cc2cccc(-c3cccc(N(C)C)c3)c2c(=O)n1-c1ccccc1 [Compound 45] | < 0.1 µM
8 | 1 to 10 µM | – | C[C@H](Nc1ncnc2scnc12)c1cc2cccc(-c3ccc(=O)n(C)c3)c2c(=O)n1-c1ccccc1 [Compound 51] | < 0.1 µM
9 | – | 1 to 10 µM | Cc1cccc2cc([C@H](C)Nc3ncnc4scnc34)n(-c3cccc(F)c3)c(=O)c12 [Compound 100] | < 0.1 µM
10 | 1 to 10 µM | 1 to 10 µM | COc1cnccc1-c1cccc2cc([C@H](C)Nc3ncnc4scnc34)n(-c3ccccc3)c(=O)c12 [Compound 36] | –
11 | 1 to 10 µM | – | C[C@H](Nc1ncnc2scnc12)c1cc2cccc(Cl)c2c(=O)n1-c1cccc(C(F)(F)F)c1 [Compound 73] | –
12 | 1 to 10 µM | – | COc1cc(-c2cccc3cc([C@H](C)Nc4ncnc5scnc45)n(-c4ccccc4)c(=O)c23)ccn1 [Compound 52] | < 0.1 µM
13 | – | 1 to 10 µM | C[C@H](Nc1ncnc2scnc12)c1cc2cccc(-c3ccnnc3)c2c(=O)n1-c1ccccc1 [Compound 92] | < 0.1 µM
14 | 1 to 10 µM | – | COc1cccc(-c2cccc3cc([C@H](C)Nc4ncnc5scnc45)n(-c4ccccc4)c(=O)c23)c1 [Compound 31] | –
15 | 1 to 10 µM | 1 to 10 µM | C[C@H](Nc1ncnc2scnc12)c1cc2cccc(-c3cncnc3)c2c(=O)n1-c1ccccc1 [Compound 19] | –
16 | 1 to 10 µM | – | C[C@H](Nc1ncnc2scnc12)c1cc2cccc(-c3cnc4ccoc4c3)c2c(=O)n1-c1ccccc1 [Compound 55] | < 0.1 µM
17 | 1 to 10 µM | 1 to 10 µM | C[C@H](Nc1nc(Cl)nc2scnc12)c1cc2cccc(-c3cnn(C)c3)c2c(=O)n1-c1ccccc1 [Compound 75] | –
18 | 1 to 10 µM | – | Cc1cncc(-c2cccc3cc([C@H](C)Nc4ncnc5scnc45)n(-c4ccccc4)c(=O)c23)c1 [Compound 20] | –
19 | – | 1 to 10 µM | CC(C)Cn1cc(-c2cccc3cc([C@H](C)Nc4ncnc5scnc45)n(-c4ccccc4)c(=O)c23)cn1 [Compound 24] | –
20 | – | 1 to 10 µM | Cc1ncc(-c2cccc3cc([C@H](C)Nc4ncnc5scnc45)n(-c4ccccc4)c(=O)c23)cn1 [Compound 37] | –
21 | 1 to 10 µM | 1 to 10 µM | C[C@H](Nc1ncnc2scnc12)c1cc2cccc(-c3cccnc3)c2c(=O)n1-c1ccccc1 [Compound 28] | –
22 | 1 to 10 µM | 1 to 10 µM | C[C@H](Nc1ncnc2scnc12)c1cc2cccc(-c3cn[nH]c3)c2c(=O)n1-c1ccccc1 [Compound 26] | –
23 | 1 to 10 µM | – | C[C@H](Nc1ncnc2scnc12)c1cc2cccc(-c3cnc(N)nc3)c2c(=O)n1-c1ccccc1 [Compound 50] | < 0.1 µM
24 | 1 to 10 µM | 1 to 10 µM | C[C@H](Nc1ncnc2scnc12)c1cc2cccc(-c3ccnc(C(F)(F)F)c3)c2c(=O)n1-c1ccccc1 [Compound 17] | –
25 | 1 to 10 µM | 1 to 10 µM | CCCn1cc(-c2cccc3cc([C@H](C)Nc4ncnc5scnc45)n(-c4ccccc4)c(=O)c23)cn1 [Compound 29] | –

The remaining lines, values behind:

Row | SMILES | IC50 (PI3Kβ) | IC50 (PI3Kα) | EC50 (Balb/c splenic B cells)
26 | COc1cncc(-c2cccc3cc([C@H](C)Nc4ncnc5scnc45)n(-c4ccccc4)c(=O)c23)c1 [Compound 39] | – | – | < 0.1 µM
27 | Cc1nn(C)cc1-c1cccc2cc([C@H](C)Nc3ncnc4scnc34)n(-c3ccccc3)c(=O)c12 [Compound 42] | 1 to 10 µM | – | –
28 | C[C@H](Nc1ncnc2scnc12)c1cc2cccc(-c3cnc4ccccc4c3)c2c(=O)n1-c1ccccc1 [Compound 41] | – | – | < 0.1 µM
29 | C[C@H](Nc1ncnc2scnc12)c1cc2cccc(-c3ccoc3)c2c(=O)n1-c1ccccc1 [Compound 34] | 1 to 10 µM | – | –
30 | Cc1cc(-c2cccc3cc([C@H](C)Nc4ncnc5scnc45)n(-c4ccccc4)c(=O)c23)ccn1 [Compound 27] | 1 to 10 µM | – | –
31 | C[C@H](Nc1ncnc2scnc12)c1cc2cccc(-c3ccncc3)c2c(=O)n1-c1ccccc1 [Compound 33] | 1 to 10 µM | – | –
32 | C[C@H](Nc1ccnc2scnc12)c1cc2cccc(-c3cnn(C)c3)c2c(=O)n1-c1ccccc1 [Compound 91] | 1 to 10 µM | 1 to 10 µM | –
33 | C[C@H](Nc1ncnc2scnc12)c1cc2cccc(C=O)c2c(=O)n1-c1ccccc1 [Compound 83] | – | 1 to 10 µM | < 0.1 µM
34 | C[C@H](Nc1ncnc2scnc12)c1cc2cccc(-c3ccc(F)c(F)c3)c2c(=O)n1-c1ccccc1 [Compound 22] | – | 1 to 10 µM | < 0.1 µM
35 | COc1ncc(-c2cccc3cc([C@H](C)Nc4ncnc5scnc45)n(-c4ccccc4)c(=O)c23)s1 [Compound 93] | 1 to 10 µM | – | < 0.1 µM
36 | C[C@H](Nc1ncnc2scnc12)c1cc2cccc(Cl)c2c(=O)n1C [Compound 81] | – | 1 to 10 µM | < 0.1 µM
37 | C[C@H](Nc1ncnc2scnc12)c1cc2scc(-c3cnn(C)c3)c2c(=O)n1-c1ccccc1 [Compound 16] | – | 1 to 10 µM | –
38 | CCn1cc(-c2cccc3cc([C@H](C)Nc4ncnc5scnc45)n(-c4ccccc4)c(=O)c23)cn1 [Compound 25] | 1 to 10 µM | 1 to 10 µM | –
39 | C[C@H](Nc1ncnc2scnc12)c1cc2scc(Cl)c2c(=O)n1-c1ccccc1 [Compound 15] | – | 1 to 10 µM | –
40 | C[C@H](Nc1ncnc2scnc12)c1cc2cccc(-c3cnc4nccnc4c3)c2c(=O)n1-c1ccccc1 [Compound 57] | – | – | < 0.1 µM
41 | C[C@H](Nc1ncnc2scnc12)c1cc2cccc(Cl)c2c(=O)n1C1CC1 [Compound 8] | – | – | < 0.1 µM
42 | C[C@H](Nc1ncnc2scnc12)c1cc2cccc(-c3cnn(C)c3)c2c(=O)n1C1CC1 [Compound 9] | – | – | < 0.1 µM
43 | COc1ccccc1-c1cccc2cc([C@H](C)Nc3ncnc4scnc34)n(-c3ccccc3)c(=O)c12 [Compound 35] | 1 to 10 µM | 1 to 10 µM | –
44 | COc1cncc(-c2cccc3cc([C@H](C)Nc4ncnc5scnc45)n(C4CC4)c(=O)c23)c1 [Compound 64] | – | – | < 0.1 µM
45 | C[C@H](Nc1ncnc2scnc12)c1cc2cccc(-c3ccc(N)nc3)c2c(=O)n1C1CC1 [Compound 63] | – | – | < 0.1 µM
46 | COc1ccc(-c2cccc3cc([C@H](C)Nc4ncnc5scnc45)n(-c4ccccc4)c(=O)c23)cn1 [Compound 18] | 1 to 10 µM | 1 to 10 µM | –
47 | CC(C)n1cc(-c2cccc3cc([C@H](C)Nc4ncnc5scnc45)n(-c4ccccc4)c(=O)c23)cn1 [Compound 23] | – | 1 to 10 µM | –
48 | C[C@H](Nc1ncnc2scnc12)c1cc2cccc(Cl)c2c(=O)n1CCN1CCCC1 [Compound 68] | – | – | < 0.1 µM
49 | C[C@H](Nc1ncnc2scnc12)c1cc2cccc(Cl)c2c(=O)n1-c1ccccc1 [Compound 2] | – | – | < 0.1 µM
50 | C[C@H](Nc1ncnc2scnc12)c1cc2ccccc2c(=O)n1-c1ccccc1 [Compound 71] | 1 to 10 µM | 1 to 10 µM | –
51 | C[C@H](Nc1ncnc2scnc12)c1cc2cccc(-c3ccc(C(F)(F)F)nc3)c2c(=O)n1-c1ccccc1 [Compound 13] | – | – | < 0.1 µM
